Measured values reported in paper PMC11597167, “Evaluation of Selected Plant Phenolics via Beta-Secretase-1 Inhibition, Molecular Docking, and Gene Expression Related to Alzheimer’s Disease” (Pharmaceuticals, 2024).
Where two headings read alike, the source gives them in different places.

Experiments:
BACT = assay: RT-PCR gene expression in SH-SY5Y cells (reference gene); assay type: cell-based, human; conditions: 24 h at IC08, β-actin, the normalizing reference gene
Procedure: (§1) In the RNA isolation protocol, cell pellets were homogenized using 1 mL of TRIzol reagent and incubated for 5 min at room temperature. Chloroform (200 μL) was added, and the mixture was shaken vigorously and incubated for 3 min at room temperature. The mixture was then centrifuged at 10,000 rpm for 15 min at +4 °C, and the upper colorless phase was transferred to an RNase-free microcentrifuge tube. Isopropanol (500 μL) was added to the tube, and the mixture was incubated at room temperature for 10 min and centrifuged at 10,000 rpm for 10 min. The supernatant was removed, and the pellet was washed with at least 75% ethanol (1 mL) and centrifuged at 7500 rpm for 5 min at +4 °C. After removing all of the supernatant from the tube and air-drying the pellet, the RNA-containing pellet was dissolved in approximately 100 μL of nuclease-free water and incubated at 55 °C for 5 min. RNA was stored at -80 °C for long-term storage. cDNA synthesis was performed using the ABM, OneScript® Plus cDNA synthesis kit (Applied Biological Materials Inc. (abm), Richmond, BC, Canada). A mixture of RNA (2000 ng/μL), dNTPs (1 μL), oligo (dT) primer (1 μL), […], and up to 13 μL of nuclease-free water was prepared and incubated at 65 °C for 5 min as described in the protocol supplied with the kit. After incubating the mixture on ice for 1 min, 4 μL of 5X RT buffer and 1 μL of OneScript® Plus RTase were added to the tube. The mixture was incubated at 50 °C for 50 min and 85 °C for 5 min. cDNA was stored at -20 °C for long-term storage. Real-time PCR was performed using ABM, BlasTaqTM 2X qPCR MasterMix, and the CFX Connect real-time system. […] DMSO, the solvent for dissolving the phenolic compounds, was used as the control group. The Qiagen GeneGlobe Complimentary qPCR Data Analysis Portal (Redwood City, CA, USA), utilizing default parameters, was employed to calculate changes in gene expression. CT values were exported from the BioRad CFX Connect real-time qPCR system and normalized against a reference gene. The p-value was derived from a Student's t-test applied to the replicate 2^-ΔΔCT values for each gene in the comparisons between the control and test groups. The p-value calculation employed was derived from a parametric, unpaired, two-sample equal variance, two-tailed distribution, a method that is widely recognized in the scientific literature. Fold change calculations, representing gene expression ratios, were determined using the established ΔΔCT method as initially described by Livak and Schmittgen. […] Multiple groups were compared by ANOVA and Dunnet post hoc test.

[1] = system: SH-SY5Y human neuroblastoma cells; assay type: cell-based; conditions: 24 h
Procedure: SH-SY5Y, a human neuroblastoma cell line (purchased from ATCC®, Cat. No. CRL-2266™), was maintained in Dulbecco’s Modified Eagle Medium/Nutrient Mixture F-12 (DMEM/F-12) complemented with 10% heat-inactivated fetal bovine serum (FBS) and 1% penicillin–streptomycin after being processed for 30 min at 56 °C. Cells were cultivated in a sterile incubator at 37 °C with 5% CO2 and 95% relative humidity.
Cells were maintained in Dulbecco’s Modified Eagle’s Medium (DMEM)/nutrient mixture F-12 (DMEM/F-12) containing 1% penicillin–streptomycin supplemented with 10% fetal bovine serum (FBS) heat-inactivated at 56 °C for 30 min. Cells were cultured in a sterile incubator at 37 °C with 5% CO2 and 95% humidity. Then, 10,000 SH-SY5Y cells in 100 µL of complete medium were seeded in each well of a 96-well plate and incubated for 16–24 h for surface attachment. […] Then, 10 µL of filter-sterilized 0.015% resazurin solution (Sigma-Aldrich, R7017) was added to each well and incubated for 2 h at 37 °C with 5% CO2. Excitation at 560 nm wavelength and emission fluorescence at 590 nm wavelength were measured, and cell viability% was calculated compared to the control group.

BACE1 = conditions: earlier study, cited from earlier work
ABCA7 = assay: RT-PCR gene expression in SH-SY5Y cells; assay type: cell-based, human; conditions: 24 h at IC08, vs DMSO control, normalized to β-actin
Procedure: as §1

SORL1 = assay: RT-PCR gene expression in SH-SY5Y cells; assay type: cell-based, human; conditions: 24 h at IC08, vs DMSO control, normalized to β-actin
Procedure: as §1

PSEN1 = assay: RT-PCR gene expression in SH-SY5Y cells; assay type: cell-based, human; conditions: 24 h at IC08, vs DMSO control, normalized to β-actin
Procedure: as §1

CLU = assay: RT-PCR gene expression in SH-SY5Y cells; assay type: cell-based, human; conditions: 24 h at IC08, vs DMSO control, normalized to β-actin
Procedure: as §1

PICALM = assay: RT-PCR gene expression in SH-SY5Y cells; assay type: cell-based, human; conditions: 24 h at IC08, vs DMSO control, normalized to β-actin
Procedure: as §1

MMP9 = assay: RT-PCR gene expression in SH-SY5Y cells; assay type: cell-based, human; conditions: 24 h at IC08, vs DMSO control, normalized to β-actin
Procedure: as §1

CR1 = assay: RT-PCR gene expression in SH-SY5Y cells; assay type: cell-based, human; conditions: 24 h at IC08, vs DMSO control, normalized to β-actin
Procedure: as §1

BIN1 = assay: RT-PCR gene expression in SH-SY5Y cells; assay type: cell-based, human; conditions: 24 h at IC08, vs DMSO control, normalized to β-actin
Procedure: as §1

CD33 = assay: RT-PCR gene expression in SH-SY5Y cells; assay type: cell-based, human; conditions: 24 h at IC08, vs DMSO control, normalized to β-actin
Procedure: as §1

TNF = assay: RT-PCR gene expression in SH-SY5Y cells; assay type: cell-based, human; conditions: 24 h at IC08, vs DMSO control, normalized to β-actin
Procedure: as §1

APP = assay: RT-PCR gene expression in SH-SY5Y cells; assay type: cell-based, human; conditions: 24 h at IC08, vs DMSO control, normalized to β-actin
Procedure: as §1

CCL5 = assay: RT-PCR gene expression in SH-SY5Y cells; assay type: cell-based, human; conditions: 24 h at IC08, vs DMSO control, normalized to β-actin
Procedure: as §1

CD2AP = assay: RT-PCR gene expression in SH-SY5Y cells; assay type: cell-based, human; conditions: 24 h at IC08, vs DMSO control, normalized to β-actin
Procedure: as §1

APOE = assay: RT-PCR gene expression in SH-SY5Y cells; assay type: cell-based, human; conditions: 24 h at IC08, vs DMSO control, normalized to β-actin
Procedure: as §1

human recombinant BACE1 = human recombinant BACE1 (Homo sapiens, UniProt P56817); assay: biochemical; assay type: biochemical; conditions: n: 3; for BACE1 Inhibition (Inhibition% ± SD): 10 mM stock concentration; for IC50: BACE1
Procedure: Fluorescence resonance energy transfer (FRET) technology was used to measure the enzymatic activity of BACE1, and measurements were performed by modifying previously used methods and the protocol included in the manufacturer’s (PanVera® Corporation, Madison, […], USA) assay kit. […] The inhibition rate was obtained using the following equation:Inhibition% = [1 − (B − B0)/(K − K0)] × 100
• K0 = fluorescence value of the control group at minute 0 • K = fluorescence value of the control group at 60 min • B0 = fluorescence value of the test compound at minute 0 • B = fluorescence value of the test compound at 60 min

APP/PS1 transgenic mice = system: APP/PS1 transgenic mice; design: method as in PMID 32913125; conditions: 6 months at 20 mg/kg b.w.; cited from earlier work
[2] = concentration with 8% inhibition (92% viability), SH-SY5Y, Mean ± SD
[3] = read-out: IC50 (inhibitory effect against BACE1)

Chain of human recombinant BACE1 (P56817 46-501): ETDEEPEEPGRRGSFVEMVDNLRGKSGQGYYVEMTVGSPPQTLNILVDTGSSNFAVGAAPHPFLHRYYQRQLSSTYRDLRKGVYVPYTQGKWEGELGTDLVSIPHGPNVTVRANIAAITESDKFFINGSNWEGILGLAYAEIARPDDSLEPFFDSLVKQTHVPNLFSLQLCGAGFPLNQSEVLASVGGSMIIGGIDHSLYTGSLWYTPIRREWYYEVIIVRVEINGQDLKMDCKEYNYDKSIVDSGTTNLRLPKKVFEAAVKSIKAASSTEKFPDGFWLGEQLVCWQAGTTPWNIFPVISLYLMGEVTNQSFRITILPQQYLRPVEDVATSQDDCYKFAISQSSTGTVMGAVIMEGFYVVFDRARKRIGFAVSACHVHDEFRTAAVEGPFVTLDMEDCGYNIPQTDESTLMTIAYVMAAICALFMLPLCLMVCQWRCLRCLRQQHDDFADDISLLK

Compound	Fold Regulation BACT (BACT)	IC08 Values [1, 2] [µM]	IC50 (BACE1; [3]) [µM]	Fold Regulation ABCA7 (ABCA7)	Fold Regulation SORL1 (SORL1)	Fold Regulation PSEN1 (PSEN1)	Fold Regulation CLU (CLU)	Fold Regulation PICALM (PICALM)	Fold Regulation MMP9 (MMP9)	Fold Regulation CR1 (CR1)	Fold Regulation BIN1 (BIN1)	Fold Regulation CD33 (CD33)	Fold Regulation TNF (TNF)	Fold Regulation APP (APP)	Fold Regulation CCL5 (CCL5)	Fold Regulation CD2AP (CD2AP)	Fold Regulation APOE (APOE)	BACE1 Inhibition (Inhibition% ± SD) (human recombinant BACE1) [%]	IC50 (human recombinant BACE1) [µM]	IC08 Values ([1]; human) [µM]	other results
OCCc1ccc(O)c(O)c1 [3-Hydroxytyrosol, 3-hydroxytyrosol]	1.00	278 ± 12.21	0.035 ± 0.04	1.82	1.81	−1.08	1.15	1.21	4.38	2.86	1.87	2.88	2.04	−1.07	3.61	1.36	−1.17	45.33 ± 0.22	> 10000	–	BACE1 Inhibition (Inhibition% ± SD) (human recombinant BACE1; listed as 3-hydroxytyrosol): below 50%
O=C(O[C@@H]1Cc2c(O)cc(O)cc2O[C@@H]1c1cc(O)c(O)c(O)c1)c1cc(O)c(O)c(O)c1 [EGCG, epigallocatechin gallate]	–	103 ± 12.47	–	–	–	–	–	–	–	–	–	–	–	–	–	–	–	–	–	–	–
O=C(O)c1cc(O)c(O)c(O)c1 [Gallic acid, 3,4,5-trihydroxybenzoic acid]	1.00	187 ± 7.11	–	1.55	1.65	−1.11	−1.11	1.22	3.14	2.20	1.16	2.40	2.06	1.15	1.92	1.15	−1.07	27.51 ± 2.97	–	–	spatial reference learning and memory impairment (APP/PS1 transgenic mice): totally reversed; BACE1 Inhibition (Inhibition% ± SD) (human recombinant BACE1; listed as gallic acid): below 50%
C/C=C1/[C@H](O[C@@H]2O[C@H](CO)[C@@H](O)[C@H](O)[C@H]2O)OC=C(C(=O)OC)[C@H]1CC(=O)OCCc1ccc(O)c(O)c1 [Oleuropein, oleuropein]	1.00	–	2.76 ± 0.23	2.42	1.90	−1.07	−1.78	1.43	5.31	3.45	−1.14	3.88	2.09	1.05	2.67	1.31	−1.33	52.38 ± 2.08	9870 ± 1010	171 ± 22.01	–
O=c1c(O)c(-c2ccc(O)c(O)c2)oc2cc(O)cc(O)c12 [Quercetin, 3,3′,4′,5,7-pentahydroxyflavone, reference compound]	–	27 ± 5.30	–	–	–	–	–	–	–	–	–	–	–	–	–	–	–	86.87 ± 4.48	–	–	–
O=C(/C=C/c1ccc(O)c(O)c1)O[C@H](Cc1ccc(O)c(O)c1)C(=O)O [Rosmarinic acid, rosmarinic acid]	1.00	–	–	−1.07	1.23	1.55	1.11	1.32	3.02	1.34	1.33	1.88	1.75	1.01	1.82	1.08	1.45	67.04 ± 0.64	4060 ± 680	546 ± 31.55	IC50 (BACE1; read-out: IC50 (BACE1 inhibitory potential)): 21 µM
